Literature values in article PMC12007609 (International Journal of Nanomedicine, 2025).

tested on: GLUT2; details: GLUT2 transport

Km [mM]	SMILES
~76	O=C(CO)[C@@H](O)[C@H](O)[C@H](O)CO [fructose]
~92	O=C[C@H](O)[C@@H](O)[C@@H](O)[C@H](O)CO [galactose]
~17	OC[C@H]1OC(O)[C@H](O)[C@@H](O)[C@@H]1O (stereo partly drawn) [glucose]
